Results: patent publication US20250281462A1, “THERAPEUTICALLY EFFECTIVE ORAL ADMINISTRATION OF A 2 ARYLBENZIMIDAZOLE” (Tranquis Therapeutics, Inc., priority 2021, published 2025)

Experiments:
[1] = Phase 1 single ascending dose (SAD) trial, plasma pharmacokinetics (Part 1); conditions: human; for Frel AUC(0-inf)/D / Frel AUC(0-last)/D / Frel Cmax/D: dose normalized comparison to Regimen C 540 mg MC; for AUC(0-t) / AUC(0-inf) / Cmax / half-life / Tmax: male, in vivo, po, single dose; for AUC(0-t) / AUC(0-inf) / Cmax / Tmax: human plasma; for half-life: T1/2, human plasma; for Tmax: median
TNF-α = assay: LPS-induced TNF-α production by primary human myeloid cells (PBMC, CBA); assay type: cell-based; conditions: 100 ng/mL LPS, 24 hours
Experimental: Peripheral blood mononuclear cells (PBMC) from 4 different healthy volunteers were used in this study. Fresh blood samples were collected at Stanford Blood Center and processed for PBMC isolation with Ficoll gradient. PBMC samples were stored in liquid nitrogen at […] for subsequent analysis of TNF-α production. For TNF-α stimulation, frozen PBMC samples were thawed and rested at 37° C. before cells were stimulated with 100 ng/ml of LPS for 24 hours. DMSO (1:1000 final dilution) or TQS-168 in DMSO (1:1000 final dilution) at various concentrations was added to cell cultures of LPS-stimulated PBMC to evaluate the effects of T-168 on TNF-α production by human primary myeloid cells. After 24 hours stimulation, supernatant samples from various conditions were collected and TNF-α concentrations in the supernatants analyzed with cytometric bead array (CBA) assay per protocols from BD Biosciences. TNF-α was quantified by median fluorescent intensity reading (MFI). Samples were analyzed directly after staining with LSRII flow cytometer.

[2] = 90 mg SDD, fasted (Regimen G) versus fed (Regimen F)
[3] = 180 mg HME (Regimen E) compared to MC counterpart (Regimen B)
[4] = 180 mg SDD (Regimen D) compared to MC counterpart (Regimen B)
[5] = MC formulation, 60 mg to 540 mg TQS-168 (9-fold increase in dose)
[6] = MC formulation, 180 mg to 540 mg TQS-168 (3-fold increase in dose)
[7] = SDD fasted, 270 mg (Regimen H) vs 90 mg (Regimen G)
[8] = SDD fasted, 270 mg (Regimen H) vs 180 mg (Regimen D)
[9] = Regimen D 180 mg SDD, geometric mean
[10] = Regimen E 180 mg HME, comparison to Regimen D 180 mg SDD, geometric mean
[11] = Regimen E 180 mg HME, geometric mean
[12] = 60 mg, Regimen A: 60 mg TQS-168 MC oral suspension, fasted, geometric mean
[13] = 60 mg, Regimen A: 60 mg TQS-168 MC oral suspension, fasted
[14] = 90 mg, Regimen F: 90 mg TQS-168 SDD oral suspension, fed (high fat breakfast), geometric mean
[15] = 90 mg, Regimen G: 90 mg TQS-168 SDD oral suspension, fasted, geometric mean
[16] = 90 mg, Regimen G: 90 mg TQS-168 SDD oral suspension, fasted
[17] = 180 mg, Regimen B: 180 mg TQS-168 MC oral suspension, fasted, geometric mean
[18] = 180 mg, Regimen D: 180 mg TQS-168 SDD oral suspension, fasted, geometric mean
[19] = 180 mg, Regimen E: 180 mg TQS-168 HME oral suspension, fasted, geometric mean
[20] = 180 mg, Regimen B: 180 mg TQS-168 MC oral suspension, fasted
[21] = 180 mg, Regimen D: 180 mg TQS-168 SDD oral suspension, fasted
[22] = 180 mg, Regimen E: 180 mg TQS-168 HME oral suspension, fasted
[23] = 270 mg, Regimen H: 270 mg TQS-168 SDD oral suspension, fasted, geometric mean
[24] = 270 mg, Regimen H: 270 mg TQS-168 SDD oral suspension, fasted
[25] = 540 mg, Regimen C: 540 mg TQS-168 MC oral suspension, fasted, geometric mean
[26] = 540 mg, Regimen C: 540 mg TQS-168 MC oral suspension, fasted

## CC(C)(C)c1ccc(-c2nc3ccccc3[nH]2)cc1 [TQS-168, 2-(4-tert-butylphenyl)-1H-benzimidazole]
[1]; [2]
  increase in AUC(0-inf): ~14%
  increase in Cmax: approximately 136%
[1]; [3]
  fold increase in geometric mean AUC(0-inf): 2.06 fold
  fold increase in geometric mean AUC(0-last): 2.14 fold
  fold increase in geometric mean Cmax: 2.32 fold
[1]; [4]
  fold increase in geometric mean AUC(0-inf): 3.45 fold
  fold increase in geometric mean AUC(0-last): 3.64 fold
  fold increase in geometric mean Cmax: 4.11 fold
[1]; [5]
  fold increase in AUC(0-24): 20.2 fold
  fold increase in AUC(0-inf): 21.2 fold
  fold increase in Cmax: 12.1 fold
[1]; [6]
  fold increase in AUC(0-24): 8.8 fold
  fold increase in AUC(0-inf): 9.5 fold
  fold increase in Cmax: 6.1 fold
[1]; [7]
  fold increase in AUC(0-inf): 4.29 fold
  fold increase in Cmax: 2.14 fold
[1]; [8]
  increase in AUC(0-inf): ~26%
  increase in Cmax: approximately 8.7%
[1]; [9]
  Frel AUC(0-inf)/D: 118%
  Frel AUC(0-last)/D: 120%
  Frel Cmax/D: 218%
[1]; [10]
  Frel AUC(0-inf): 59.6%
  Frel AUC(0-last): 58.9%
  Frel Cmax: 56.6%
[1]; [11]
  Frel AUC(0-inf)/D: 70.4%
  Frel AUC(0-last)/D: 70.9%
  Frel Cmax/D: 124%
[1]; 60 mg, AUC(0-24), Regimen A: 60 mg TQS-168 MC oral suspension, fasted, geometric mean
  AUC(0-t): 71.2 ng·h/mL
[1]; [12]
  AUC(0-inf): 72.7 ng·h/mL
  Cmax: 26.7 ng/mL
  half-life: 3.06 h
[1]; 60 mg, AUC(0-last), Regimen A: 60 mg TQS-168 MC oral suspension, fasted, geometric mean
  AUC(0-t): 67.6 ng·h/mL
[1]; [13]
  Cmax: 110 nM
  Tmax: 1 h
[1]; 90 mg, AUC(0-24), Regimen F: 90 mg TQS-168 SDD oral suspension, fed (high fat breakfast), geometric mean
  AUC(0-t): 168 ng·h/mL
[1]; 90 mg, AUC(0-24), Regimen G: 90 mg TQS-168 SDD oral suspension, fasted, geometric mean
  AUC(0-t): 192 ng·h/mL
[1]; [14]
  AUC(0-inf): 171 ng·h/mL
  Cmax: 47.1 ng/mL
  half-life: 3.52 h
[1]; [15]
  AUC(0-inf): 195 ng·h/mL
  Cmax: 111 ng/mL
  half-life: 4.85 h
[1]; 90 mg, AUC(0-last), Regimen F: 90 mg TQS-168 SDD oral suspension, fed (high fat breakfast), geometric mean
  AUC(0-t): 166 ng·h/mL
[1]; 90 mg, AUC(0-last), Regimen G: 90 mg TQS-168 SDD oral suspension, fasted, geometric mean
  AUC(0-t): 189 ng·h/mL
[1]; 90 mg, Regimen F: 90 mg TQS-168 SDD oral suspension, fed
  Cmax: 190 nM
[1]; [16]
  Cmax: 440 nM
  Tmax: 0.5 h
[1]; 90 mg, Regimen F: 90 mg TQS-168 SDD oral suspension, fed (high fat breakfast)
  Tmax: 1.5 h
[1]; 180 mg, AUC(0-24), Regimen B: 180 mg TQS-168 MC oral suspension, fasted, geometric mean
  AUC(0-t): 163 ng·h/mL
[1]; 180 mg, AUC(0-24), Regimen D: 180 mg TQS-168 SDD oral suspension, fasted, geometric mean
  AUC(0-t): 608 ng·h/mL
[1]; 180 mg, AUC(0-24), Regimen E: 180 mg TQS-168 HME oral suspension, fasted, geometric mean
  AUC(0-t): 358 ng·h/mL
[1]; [17]
  AUC(0-inf): 180 ng·h/mL
  Cmax: 53.1 ng/mL
  half-life: 7.36 h
[1]; [18]
  AUC(0-inf): 621 ng·h/mL
  Cmax: 218 ng/mL
  half-life: 5.64 h
[1]; [19]
  AUC(0-inf): 370 ng·h/mL
  Cmax: 123 ng/mL
  half-life: 7.25 h
[1]; 180 mg, AUC(0-last), Regimen B: 180 mg TQS-168 MC oral suspension, fasted, geometric mean
  AUC(0-t): 168 ng·h/mL
[1]; 180 mg, AUC(0-last), Regimen D: 180 mg TQS-168 SDD oral suspension, fasted, geometric mean
  AUC(0-t): 611 ng·h/mL
[1]; 180 mg, AUC(0-last), Regimen E: 180 mg TQS-168 HME oral suspension, fasted, geometric mean
  AUC(0-t): 360 ng·h/mL
[1]; [20]
  Cmax: 210 nM
  Tmax: 1 h
[1]; [21]
  Cmax: 870 nM
  Tmax: 1 h
[1]; [22]
  Cmax: 490 nM
  Tmax: 1.5 h
[1]; 270 mg, AUC(0-24), Regimen H: 270 mg TQS-168 SDD oral suspension, fasted, geometric mean
  AUC(0-t): 736 ng·h/mL
[1]; [23]
  AUC(0-inf): 836 ng·h/mL
  Cmax: 237 ng/mL
  half-life: 10.4 h
[1]; 270 mg, AUC(0-last), Regimen H: 270 mg TQS-168 SDD oral suspension, fasted, geometric mean
  AUC(0-t): 801 ng·h/mL
[1]; [24]
  Cmax: 950 nM
  Tmax: 1.5 h
[1]; 540 mg, AUC(0-24), Regimen C: 540 mg TQS-168 MC oral suspension, fasted, geometric mean
  AUC(0-t): 1440 ng·h/mL
[1]; [25]
  AUC(0-inf): 1600 ng·h/mL
  Cmax: 323 ng/mL
  half-life: 10.1 h
[1]; 540 mg, AUC(0-last), Regimen C: 540 mg TQS-168 MC oral suspension, fasted, geometric mean
  AUC(0-t): 1540 ng·h/mL
[1]; [26]
  Cmax: 1290 nM
  Tmax: 2.25 h
TNF-α; 5 μM
  suppression of TNFα production vs no treatment: statistically significant suppression
TNF-α; 20 μM
  suppression of TNFα production vs no treatment: statistically significant suppression
